Measurements from patent publication US20030215899A1, “Reversible oxidation of protein tyrosine phosphatases” (CEPTYR, Inc., priority 2002, published 2003).
“Also recorded” adds a separate entry of the source. Blank lines part the entries; values can stand above or below the compound they belong to.

Columns and labels:
[1] = tested on: MAPK; assay: anti-phospho-MAPK / anti-MAPK immunoblot; type: cell-based, Rat; details: for activation of MAPKs (mitogenic signaling): 200 μM
Description: (§1) For immunoprecipitation, cells were rinsed with ice-cold PBS, then lysed in ice-cold 20 mM Hepes (pH 7.5), 1% NP-40, 150 mM NaCl, 10% glycerol, 200 μM […] and protease inhibitors (25 μg/ml of aprotinin and leupeptin). […] The anti-pTyr antibody G104 was described previously (Garton et al., 1997 Oncogene 15, 877-885). Anti-PDGFRββ antibody (Ab-X) was a gift from Dr. Daniel DiMaio at Yale University (Irusta and DiMaio, 1998 EMBO J. 17, 6912-6923). Anti-human G-CSF receptor (G-CSFR) antibody was provided by Dr. Toshio Hirano at Osaka University, Japan (Fukada et al., 1996 Immunity 5, 449-460). Lysate (400 μg) was incubated with 5 μg of antibody conjugated to protein A/G-Sepharose (Amersham Pharmacia, Arlington Heights, Ill.) for 2 hours at 4° C. For immunoblotting, aliquots of total lysates (30 μg per sample) or immunoprecipitates were subjected to SDS-PAGE and transferred to nitrocellulose filters, which were incubated with appropriate primary and secondary antibodies and the specific signals were visualized by the ECL detection system (Amersham Pharmacia).

[2] = tested on: PTPs in Rat-1 cells; assay: modified in-gel PTP activity assay of Rat-1 cell lysates; type: cell-based; details: for inactivation (oxidation) of PTPs in cells: 200 μM
From the text: (§2) To determine whether ROS stimulated intracellular tyrosine phosphorylation through the oxidation and inhibition of cellular PTPs, a modified in-gel PTP activity assay was devised, as follows: As substrate, poly (4:1) Glu-Tyr (Sigma) was labeled with [γ-^32P]-ATP using the GST-FER fusion PTK, as described previously (Shen et al., 1998 J. Biol. Chem. 273:6474-81). The labeled substrates were used within three weeks to limit the variation of its specific activity from experiment to experiment. The lysis buffer (25 mM CH3COONa, 1% NP-40, 150 mM NaCl, 10% glycerol, pH 5.5) was degassed at 4° C. for overnight, before catalase and superoxide dismutase (both 100 μg/ml), protease inhibitors and 10 mM iodoacetic acid (IAA) were added. Following stimulation, cells were lysed under anaerobic conditions in an argon chamber. Lysates (25 μg) were processed as described herein and an “in-gel” phosphatase assay (Burridge and Nelson, 1995) was conducted using SDS-PAGE gels containing a radioactively-labeled substrate (1.5×10^6 cpm/20 ml gel solution, approximately 2 μM p-Tyr).
(§3) Cells were triggered with the appropriate stimulus and harvested under anaerobic conditions in lysis buffer containing IAA. Those PTPs that had not encountered ROS in the cell became irreversibly inactivated by alkylation of their active site Cys with IAA. However, in contrast, any PTPs in which the active site Cys had been oxidized in response to the stimulus were resistant to alkylation. For the “in-gel” phosphatase assay, a 10% SDS-PAGE gel was cast containing a radioactively-labeled substrate. An aliquot of cell lysate was subjected to SDS-PAGE and proteins in the gel were sequentially denatured, then renatured in the presence of reducing reagents. […] The reaction was then terminated by fixing, staining and destaining the gel. Finally the gel was dried and exposed to film. The presence of a PTP was visualized by substrate dephosphorylation, as the appearance of a clear, white area on the black background of labeled substrate.

[3] = target: SHP-2 (E76A mutant) (Homo sapiens, UniProt Q06124, E76A); type: biochemical; details: for protection of SHP-2 from alkylation by IAA: 37° C. 5 mins, then 4 mM IAA
[4] = tested on: intracellular ROS in Rat-1 cells; assay: ROS-induced DCF fluorescence (microscopy, flow cytometry); type: cell-based; details: for DCF fluorescence by fluorescence microscopy: 20 μM H2DCFDA preload, 200 μM, 5 mins; for shift of DCF fluorescence by flow cytometry, H2O2 versus t-BHP: 200 μM each
Description: The effects of H2O2 and t-BHP on inactivation of PTPs and activation of MAPK signaling pathways were next compared in a cellular context. Intracellular ROS were measured using 2′,7′-dichlorofluorescein diacetate (H2DCFDA) and 5-(and-6)-chloromethyl-2′,7′-dichlorodihydrofluorescein diacetate (CM-H2DCFDA) (all fluorescent ROS indicators from Molecular Probes, Eugene, Oreg.) either by fluorescence microscopy, using a Zeiss Axiovert 405M inverted microscope equipped with a fluorescence attachment and digital camera, or by cell sorting, using a FACSCalibur System ([…].), according to the manufacturer's recommendations. Rat-1 cells were pre-loaded with 20 μM H2DCFDA in the dark for 20 mins, then exposed to H2O2 and t-BHP (both 200 μM) for 5 mins. Images of ROS-induced DCF fluorescence are shown at magnification 400× (FIG. 3B upper panel). Cells (1×10^5) that underwent the same treatment as above were harvested and resuspended in Hanks' solution, then immediately subjected to flow cytometric analysis to measure ROS-induced DCF fluorescence. The basal peak indicates background fluorescence, whereas the rightward shifted peak indicates ROS-induced DCF fluorescence (FIG. 3B, lower panels). […] Cells were exposed to H2O2 and t-BHP (each at 200 μM) for the indicated times, lysed in the presence of 10 mM IAA and oxidized PTPs were visualized in the in-gel PTP activity assay.
Rat-1 cells were incubated with 20 μM CM-H2DCFDA in the dark for 20 mins, then exposed to peptide growth factors (50 ng/ml) for an additional 10 mins. Images of ROS-induced DCF fluorescence are shown at 50× magnification. (FIG. 6A) The data are representative of 4 independent experiments. In FIG. 6B, Rat-1 cells were exposed to peptide growth factors for the indicated times, lysed in the presence of 10 mM IAA, and oxidized PTPs were visualized by the in-gel PTP assay. […] Aliquots of cell lysate from each treatment group were immunoblotted with anti-phospho-MAPK Ab and re-probed with anti-MAPK Ab.

[5] = tested on: tyrosine phosphorylation of cellular proteins in Rat-1 cells; assay: immunoprecipitation (PT-66) and anti-pTyr (G104) immunoblot of tyrosine phosphorylated proteins; type: cell-based
Description: as §1

[6] = tested on: PDGFR; assay: PDGFR immunoprecipitation (Ab-X) and anti-pTyr immunoblot; type: cell-based, Rat; details: 30 mM NAC 40 minutes before PDGF 50 ng/ml
Description: as §1
A possible role of oxidation/inactivation of the 70 k PTP in regulating PDGFR-mediated signaling was next investigated by testing the effects of the antioxidant NAC. Cells were incubated for 40 minutes in the presence or absence of 30 mM NAC prior to PDGF stimulation. Excess NAC was removed prior to addition of PDGF (50 ng/ml). […]

[7] = target: T1, 70 kDa PTP (SHP-2) (Rattus norvegicus, UniProt P41499); assay: modified in-gel PTP assay, growth factor stimulated Rat-1 cells; type: cell-based
T1 construct: endogenous in cells; host or cells: Rat-1 fibroblasts
T1 sequence (P41499 1-593): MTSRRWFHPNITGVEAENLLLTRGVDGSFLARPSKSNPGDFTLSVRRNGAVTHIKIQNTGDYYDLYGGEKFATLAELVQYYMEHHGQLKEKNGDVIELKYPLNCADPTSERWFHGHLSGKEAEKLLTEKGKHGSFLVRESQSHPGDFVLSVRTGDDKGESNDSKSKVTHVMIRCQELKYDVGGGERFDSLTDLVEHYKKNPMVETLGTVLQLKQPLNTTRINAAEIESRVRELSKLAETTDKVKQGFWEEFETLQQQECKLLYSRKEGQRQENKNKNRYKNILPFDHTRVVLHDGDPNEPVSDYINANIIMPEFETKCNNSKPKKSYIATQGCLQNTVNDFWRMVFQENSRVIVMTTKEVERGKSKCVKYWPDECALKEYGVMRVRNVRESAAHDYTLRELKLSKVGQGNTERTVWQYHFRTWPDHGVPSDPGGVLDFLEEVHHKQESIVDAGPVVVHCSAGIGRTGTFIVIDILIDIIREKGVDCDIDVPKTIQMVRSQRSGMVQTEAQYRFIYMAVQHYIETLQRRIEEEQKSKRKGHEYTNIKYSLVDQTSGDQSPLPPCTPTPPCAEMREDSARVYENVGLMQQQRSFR
From the text: as §2, §3
As described above, treatment of Rat-1 cells with H2O2 led to inactivation of multiple PTPs (FIGS. 2-3). […] Lysates of PDGF-stimulated Rat-1 cells were then analyzed using the modified in-gel PTP activity assay described above. […] Serum-starved Rat-1 cells were exposed to 50 ng/ml PDGF-BB for the times indicated (FIG. 4A). Lysates were prepared in the presence of 10 mM IAA and subjected to the in-gel PTP assay. […] The result shown is representative of four independent experiments. Oxidation of this 70 kDa PTP was reversible, reaching a maximum at 5 minutes, followed by marked reduction, almost to basal levels, within 20 minutes of PDGF treatment (FIG. 4A).
Rat-1 cells, either untreated (−) or stimulated with 50 ng/ml PDGF (+), were harvested in lysis buffer containing 10 mM IAA.

[8] = tested on: PDGFR/SHP-2 complex; assay: recruitment of SHP-2 into a complex with the PDGFR; type: cell-based; details: ligand stimulation in Rat-1 cells, preliminary studies
Description: as §1
Serum-starved Rat-1 cells were exposed to PDGF (50 ng/ml) for the indicated times (FIG. 5A). The PDGFR and associated proteins were immunoprecipitated with antibody Ab-X, and pTyr proteins visualized by immunoblotting with anti-pTyr Ab G104 (FIG. 5A, upper panel). […]

[9] = 30 mM NAC 40 minutes before PDGF 50 ng/ml
[10] = PDGF-treated Rat-1 cells, preliminary experiments

Compound: CC(C)(C)OO [t-BHP, t-butyl hydroperoxide]
activation of MAPKs (mitogenic signaling) [1]: unable to activate MAPKs | inactivation (oxidation) of PTPs in cells ([2]; lysis with 10 mM IAA): not in response to t-BHP | protection of SHP-2 from alkylation by IAA [3]: did not protect the invariant Cys residue of SHP-2 from alkylation | oxidation and inactivation of SHP-2 in vitro ([3]; purified SHP-2 (E76A)): unable to oxidize and inactivate SHP-2 | DCF fluorescence by fluorescence microscopy [4]: led to rapid oxidation and the appearance of the fluorescent derivative, DCF | shift of DCF fluorescence by flow cytometry, H2O2 versus t-BHP [4]: no quantitative difference was observed | tyrosine phosphorylation of cellular proteins ([5]; 200 μM): less pronounced effects on tyrosine phosphorylation

Compound: OO [H2O2, hydrogen peroxide]
activation of MAPKs (mitogenic signaling) [1]: enhanced tyrosine phosphorylation and mitogenic signaling | phosphorylation of ERK MAP kinases ([1]; H2O2-treated Rat-1 cells): triggered the phosphorylation of ERK MAP kinases | time to essentially complete recovery (reduction) of PTPs after removal of H2O2 ([2]; 200 μM H2O2 for 2 minutes, no BSO): 10 to 20 min | inactivation (oxidation) of PTPs in cells ([2]; lysis with 10 mM IAA): reproducible inactivation of PTPs was detected | H2O2 concentration sufficient to oxidize all PTPs detectable in the assay ([2]; 1 min exposure, serum-deprived Rat-1 cells): 200 µM | time to oxidation of active site Cys of various PTPs ([2]; H2O2 added to culture media, lysis with 10 mM IAA): ≤ 1 min | irreversible oxidation of SHP-2 ([3]; 2 mM H2O2): not irreversibly oxidized | protection of SHP-2 from alkylation by IAA [3]: protected SHP-2 from alkylation | DCF fluorescence by fluorescence microscopy [4]: led to rapid oxidation and the appearance of the fluorescent derivative, DCF | shift of DCF fluorescence by flow cytometry, H2O2 versus t-BHP [4]: no quantitative difference was observed | tyrosine phosphorylation of cellular proteins ([5]; 200 μM): enhanced tyrosine phosphorylation | tyrosine phosphorylation of proteins of 120 kDa and 70 kDa ([5]; various concentrations of H2O2): induced in a dose-dependent fashion

Compound: CCCCS(=N)(=O)CCC(N)C(=O)O [BSO, L-buthionine-SR-sulfoximine]
effect on recovery of PTP activity following removal of H2O2 ([2]; 2.5 mM BSO 16 h, 200 μM H2O2 for 2 minutes then removed): markedly attenuated the recovery of PTP activity | persistence of PTP oxidation after removal of H2O2 ([2]; BSO-pretreated Rat-1 cells): ≥ 30 min

Compound: CC(=O)N[C@@H](CS)C(=O)O [NAC, N-acetyl cysteine]
effect on PDGF-induced activation of MAPKs [1, 9]: completely eliminated | effect on H2O2-induced PTP oxidation and inactivation ([2]; 30 mM NAC preincubation 40 minutes, then 200 μM H2O2): blocked PTP oxidation and inactivation | effect on ligand-induced tyrosine phosphorylation of the PDGFR [6]: greatly diminished | effect on PDGF-induced oxidation of the 70 k PTP [7, 9]: markedly attenuated; also recorded: impaired

time of maximum oxidation of 70 kDa PTP ([7]; 50 ng/ml PDGF-BB): 5 min | time to reduction of 70 kDa PTP almost to basal levels ([7]; 50 ng/ml PDGF-BB): ≤ 20 min
Compound: PDGF: peptide growth factor
phosphorylation of MAPKs [1, 10]: enhanced phosphorylation of MAPKs | activation of MAPK ([1]; peptide growth factors, Rat-1 cells): activated MAPK to a similar extent | oxidation of ~70 kDa PTP ([7]; 50 ng/ml PDGF-BB, serum-starved Rat-1 cells): rapid and transient oxidation; also recorded: transiently oxidized | oxidation and inhibition of SHP-2 ([7]; peptide growth factors, lysis with 10 mM IAA): oxidation and inhibition of SHP-2 was observed; also recorded: induced | fraction of total SHP-2 recruited into a complex with the PDGFR [8]: ~10% | production of intracellular ROS ([4]; 20 μM CM-H2DCFDA, growth factor 50 ng/ml, 10 mins): triggered production of intracellular ROS | tyrosine phosphorylation of cellular proteins [5, 10]: rapid increase in the tyrosine phosphorylation of cellular proteins
